According to paper PMC11007962, “First-in-human study of GFH018, a small molecule inhibitor of transforming growth factor-β receptor I inhibitor, in patients with advanced solid tumors” (BMC Cancer, 2024):
Like-named read-outs stand apart in the source and are kept apart here.

Test system: patients with advanced solid tumors
[1] = 5 mg BID 14d-on/14d-off (N = 4)
[2] = 10 mg BID 14d-on/14d-off (N = 3)
[3] = 20 mg BID 14d-on/14d-off (N = 4)
[4] = 30 mg BID 14d-on/14d-off (N = 7)

Experimental: The study consisted of a dose-escalation part followed by an expansion part. In the dose escalation part, a 3-day pharmacokinetic (PK) lead-in period was conducted for a single dose in the first treatment cycle. Patients received GFH018 once on cycle 1 day 1 (C1D1) and underwent serial PK testing over the first 3 days. On C1D4, patients were administered the corresponding dose of GFH018 BID 14 days on/14 days off. The first cycle was defined as 31 days, including 3-day PK leading-in period with GFH018 single dosing and then 14d-on/14d-off dosing schedule. The subsequent cycles were 28 days. The starting dose of GFH018 was 5 mg, with eight planned dose levels up to 85 mg (5, 10, 20, 30, 40, 50, 65, and 85 mg). A modified 3+3 design was used to determine the maximum tolerance dose (MTD) and RDE, guided by safety/tolerability and PK data. Dose-limiting toxicities (DLTs) were evaluated during the first cycle at each dose level. The safety of 85 mg BID, 7 d-on/7 d-off, was explored after confirming the safety of 14 d-on/14 d-off. The DLTs were defined as hematological toxicities, including G4 neutropenia lasting for more than 5 days, G3 febrile neutropenia, G4 anemia, G4 thrombocytopenia, or G3 thrombocytopenia accompanied by bleeding, and ≥ G3 nonhematological toxicity (except for diarrhea, nausea, vomiting, and rash recovering ≤ G2 after supportive treatment within 3 days). The DLTs for cardiac toxicities included ≥ G2 cardiac valve abnormalities, ≥ G2 left ventricular ejection fraction (LVEF) decrease, any cardiovascular impairment shown in imaging, and abnormal highly sensitive troponin (hs-Tn) increased to ≥ twice the baseline in two consecutive tests with an interval ≥ 3 days. In the expansion part, patients were orally administered GFH018 RDE twice daily to further evaluate the safety of RDE and other dose regimens. […] The treatment cycle lasted 28 days.
All enrolled patients were monitored regularly after GFH018 administration. Safety assessments included adverse events (AEs), serious AEs (SAEs), laboratory assessments, vital signs, physical examinations, electrocardiography and echocardiography. AEs were graded according to the NCI Common Terminology Criteria for Adverse Events (NCI-CTCAE) v5.0. All AEs were followed up until they were stable or had recovered to baseline. Adverse events of special interest (AESIs) were predefined as echocardiographic abnormalities such as aggravated stenosis or regurgitation of the heart valves, clinically significant decreases in LVEF, brain natriuretic peptide (BNP) or N-terminal pro-brain natriuretic peptide (NT-proBNP) increases, and hs-Tn increases judged by investigators.
For the safety and efficacy analyses, data from patients who received GFH018 at the same dose in the dose-escalation and expansion cohorts were pooled. The demographic and baseline characteristics were summarized using descriptive methods. Safety and efficacy data were summarized for all patients who received at least one dose of GFH018. The ORR and DCR were summarized by cohort and overall. When the sample size of the analyzed group was ten or more, the Kaplan–Meier method was used to estimate the median PFS and TTP. In this study, treatment-emergent AEs (TEAEs) were defined as AEs that occurred on or after the first dosing date of GFH018 and no later than 30 days after the last dose of GFH018. The incidence and severity of AEs were descriptively summarized according to dose level. The PK parameters of GFH018 were calculated using noncompartmental analysis methods. All plasma PK data were summarized by cohort and visit day or time using descriptive statistics.

Cc1cccc(-c2nn3c(c2-c2ccc4ncnn4c2/C=C/C(N)=O)CCC3)n1 [GFH018]
At least one TEAE [1]: 4 (100%) n (%) | At least one TRAE [1]: 4 (100%) n (%) | TEAE: ALP increased [1]: 0 n (%) | TEAE: ALT increased [1]: 0 n (%) | TEAE: AST increased [1]: 0 n (%) | TEAE: Abdominal distention [1]: 0 n (%) | TEAE: Abdominal pain [1]: 0 n (%) | TEAE: Anemia [1]: 0 n (%) | TEAE: Asthenia [1]: 0 n (%) | TEAE: Bilirubin conjugated increased [1]: 1 (25.0%) n (%) | TEAE: Blood albumin decreased [1]: 2 (50.0%) n (%) | TEAE: Blood bilirubin increased [1]: 0 n (%) | TEAE: C-reactive protein increased [1]: 2 (50.0%) n (%) | TEAE: Constipation [1]: 0 n (%) | TEAE: Decreased appetite [1]: 1 (25.0%) n (%) | TEAE: GGT increased [1]: 1 (25.0%) n (%) | TEAE: Hypoalbuminemia [1]: 0 n (%) | TEAE: LDH increased [1]: 1 (25.0%) n (%) | TEAE: Lymphocyte count decreased [1]: 4 (100%) n (%) | TEAE: Platelet count decreased [1]: 1 (25.0%) n (%) | TEAE: Proteinuria [1]: 1 (25.0%) n (%) | TEAE: Sinus tachycardia [1]: 2 (50.0%) n (%) | TEAE: Urine protein present [1]: 2 (50.0%) n (%) | TEAE: White blood cell count decreased [1]: 1 (25.0%) n (%) | TEAE: White blood cells urine positive [1]: 0 n (%) | TRAE: ALP increased [1]: 0 n (%) | TRAE: ALT increased [1]: 0 n (%) | TRAE: AST increased [1]: 0 n (%) | TRAE: Anemia [1]: 0 n (%) | TRAE: GGT increased [1]: 0 n (%) | TRAE: LDH increased [1]: 0 n (%) | TRAE: Lymphocyte count decreased [1]: 1 (25.0%) n (%) | TRAE: Protein urine present [1]: 1 (25.0%) n (%) | TRAE: Proteinuria [1]: 0 n (%) | Treatment-emergent Proteinuria (grouped PTs), G1 [1]: 1 (25.0) n (%) | Treatment-emergent Proteinuria (grouped PTs), G2 [1]: 2 (50.0) n (%) | Treatment-emergent Proteinuria (grouped PTs), G3 [1]: 0 n (%) | Treatment-emergent Proteinuria (grouped PTs: proteinuria and urine protein present), any grade [1]: 3 (75.0) n (%) | At least one TEAE [2]: 3 (100%) n (%) | At least one TRAE [2]: 3 (100%) n (%) | TEAE: ALP increased [2]: 1 (33.3%) n (%) | TEAE: ALT increased [2]: 1 (33.3%) n (%) | TEAE: AST increased [2]: 0 n (%) | TEAE: Abdominal distention [2]: 0 n (%) | TEAE: Abdominal pain [2]: 0 n (%) | TEAE: Anemia [2]: 1 (33.3%) n (%) | TEAE: Asthenia [2]: 1 (33.3%) n (%) | TEAE: Bilirubin conjugated increased [2]: 0 n (%) | TEAE: Blood albumin decreased [2]: 1 (33.3%) n (%) | TEAE: Blood bilirubin increased [2]: 0 n (%) | TEAE: C-reactive protein increased [2]: 0 n (%) | TEAE: Constipation [2]: 1 (33.3%) n (%) | TEAE: Decreased appetite [2]: 0 n (%) | TEAE: GGT increased [2]: 2 (66.7%) n (%) | TEAE: Hypoalbuminemia [2]: 0 n (%) | TEAE: LDH increased [2]: 1 (33.3%) n (%) | TEAE: Lymphocyte count decreased [2]: 0 n (%) | TEAE: Platelet count decreased [2]: 0 n (%) | TEAE: Proteinuria [2]: 0 n (%) | TEAE: Sinus tachycardia [2]: 0 n (%) | TEAE: Urine protein present [2]: 2 (66.7%) n (%) | TEAE: White blood cell count decreased [2]: 0 n (%) | TEAE: White blood cells urine positive [2]: 0 n (%) | TRAE: ALP increased [2]: 1 (33.3%) n (%) | TRAE: ALT increased [2]: 1 (33.3%) n (%) | TRAE: AST increased [2]: 0 n (%) | TRAE: Anemia [2]: 1 (33.3%) n (%) | TRAE: GGT increased [2]: 2 (66.7%) n (%) | TRAE: LDH increased [2]: 1 (33.3%) n (%) | TRAE: Lymphocyte count decreased [2]: 0 n (%) | TRAE: Protein urine present [2]: 1 (33.3%) n (%) | TRAE: Proteinuria [2]: 0 n (%) | Treatment-emergent Proteinuria (grouped PTs), G1 [2]: 0 n (%) | Treatment-emergent Proteinuria (grouped PTs), G2 [2]: 2 (66.7) n (%) | Treatment-emergent Proteinuria (grouped PTs), G3 [2]: 0 n (%) | Treatment-emergent Proteinuria (grouped PTs: proteinuria and urine protein present), any grade [2]: 2 (66.7) n (%) | At least one TEAE [3]: 4 (100%) n (%) | At least one TRAE [3]: 4 (100%) n (%) | TEAE: ALP increased [3]: 1 (25.0%) n (%) | TEAE: ALT increased [3]: 1 (25.0%) n (%) | TEAE: AST increased [3]: 0 n (%) | TEAE: Abdominal distention [3]: 1 (25.0%) n (%) | TEAE: Abdominal pain [3]: 0 n (%) | TEAE: Anemia [3]: 1 (25.0%) n (%) | TEAE: Asthenia [3]: 2 (50.0%) n (%) | TEAE: Bilirubin conjugated increased [3]: 1 (25.0%) n (%) | TEAE: Blood albumin decreased [3]: 1 (25.0%) n (%) | TEAE: Blood bilirubin increased [3]: 1 (25.0%) n (%) | TEAE: C-reactive protein increased [3]: 0 n (%) | TEAE: Constipation [3]: 0 n (%) | TEAE: Decreased appetite [3]: 0 n (%) | TEAE: GGT increased [3]: 0 n (%) | TEAE: Hypoalbuminemia [3]: 0 n (%) | TEAE: LDH increased [3]: 0 n (%) | TEAE: Lymphocyte count decreased [3]: 0 n (%) | TEAE: Platelet count decreased [3]: 0 n (%) | TEAE: Proteinuria [3]: 2 (50.0%) n (%) | TEAE: Sinus tachycardia [3]: 0 n (%) | TEAE: Urine protein present [3]: 2 (50.0%) n (%) | TEAE: White blood cell count decreased [3]: 1 (25.0%) n (%) | TEAE: White blood cells urine positive [3]: 1 (25.0%) n (%) | TRAE: ALP increased [3]: 0 n (%) | TRAE: ALT increased [3]: 0 n (%) | TRAE: AST increased [3]: 0 n (%) | TRAE: Anemia [3]: 0 n (%) | TRAE: GGT increased [3]: 0 n (%) | TRAE: LDH increased [3]: 0 n (%) | TRAE: Lymphocyte count decreased [3]: 0 n (%) | TRAE: Protein urine present [3]: 1 (25.0%) n (%) | TRAE: Proteinuria [3]: 2 (50.0%) n (%) | Treatment-emergent Proteinuria (grouped PTs), G1 [3]: 3 (75.0) n (%) | Treatment-emergent Proteinuria (grouped PTs), G2 [3]: 1 (25.0) n (%) | Treatment-emergent Proteinuria (grouped PTs), G3 [3]: 0 n (%) | Treatment-emergent Proteinuria (grouped PTs: proteinuria and urine protein present), any grade [3]: 4 (100.0) n (%) | At least one TEAE [4]: 7 (100%) n (%) | At least one TRAE [4]: 7 (100%) n (%) | TEAE: ALP increased [4]: 1 (14.3%) n (%) | TEAE: ALT increased [4]: 2 (28.6%) n (%) | TEAE: AST increased [4]: 3 (42.9%) n (%) | TEAE: Abdominal distention [4]: 2 (28.6%) n (%) | TEAE: Abdominal pain [4]: 2 (28.6%) n (%) | TEAE: Anemia [4]: 3 (42.9%) n (%) | TEAE: Asthenia [4]: 2 (28.6%) n (%) | TEAE: Bilirubin conjugated increased [4]: 2 (28.6%) n (%) | TEAE: Blood albumin decreased [4]: 0 n (%) | TEAE: Blood bilirubin increased [4]: 3 (42.9%) n (%) | TEAE: C-reactive protein increased [4]: 0 n (%) | TEAE: Constipation [4]: 4 (57.1%) n (%) | TEAE: Decreased appetite [4]: 1 (14.3%) n (%) | TEAE: GGT increased [4]: 1 (14.3%) n (%) | TEAE: Hypoalbuminemia [4]: 3 (42.9%) n (%) | TEAE: LDH increased [4]: 3 (42.9%) n (%) | TEAE: Lymphocyte count decreased [4]: 1 (14.3%) n (%) | TEAE: Platelet count decreased [4]: 1 (14.3%) n (%) | TEAE: Proteinuria [4]: 4 (57.1%) n (%) | TEAE: Sinus tachycardia [4]: 1 (14.3%) n (%)
